Assays:
benzodiazepine receptors = settings: cited from earlier work
adenosine deaminase = settings: cited from earlier work
mice = settings: oral or intraperitoneal; cited from earlier work
cerebellar cyclic GMP = settings: in vivo; cited from earlier work
A1 site = settings: cited from earlier work
A2 site = settings: cited from earlier work
mouse spinal cord = settings: at doses in which neuromuscular junction transmission was unaltered; cited from earlier work
[1] = system: adenosine uptake system (nucleoside transporter); settings: cited from earlier work
[2] = in vivo; rats (printed "rates"); cited from earlier work
A1 receptor = biological target: T1, A1 receptor (Rattus norvegicus, UniProt P25099); assay: IC50 at the A1 receptor (^3 H-PIA); assay type: binding; settings: for IC50: ^3 H-PIA
T1 sequence (P25099 1-326): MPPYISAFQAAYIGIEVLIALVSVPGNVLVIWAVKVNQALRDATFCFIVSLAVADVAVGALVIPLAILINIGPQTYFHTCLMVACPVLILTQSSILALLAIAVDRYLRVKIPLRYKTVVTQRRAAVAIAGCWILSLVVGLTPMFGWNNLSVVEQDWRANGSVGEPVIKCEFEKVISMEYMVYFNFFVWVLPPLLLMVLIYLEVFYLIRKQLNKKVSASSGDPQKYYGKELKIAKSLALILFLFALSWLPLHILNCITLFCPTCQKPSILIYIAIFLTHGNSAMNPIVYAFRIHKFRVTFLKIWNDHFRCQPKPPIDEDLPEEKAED

A2 receptor = A2 receptor (Rattus norvegicus, UniProt P30543); assay: IC50 at the A2 receptor (^3 H-CGS21680); assay type: binding
Sequence of A2 receptor (P30543 whole entry): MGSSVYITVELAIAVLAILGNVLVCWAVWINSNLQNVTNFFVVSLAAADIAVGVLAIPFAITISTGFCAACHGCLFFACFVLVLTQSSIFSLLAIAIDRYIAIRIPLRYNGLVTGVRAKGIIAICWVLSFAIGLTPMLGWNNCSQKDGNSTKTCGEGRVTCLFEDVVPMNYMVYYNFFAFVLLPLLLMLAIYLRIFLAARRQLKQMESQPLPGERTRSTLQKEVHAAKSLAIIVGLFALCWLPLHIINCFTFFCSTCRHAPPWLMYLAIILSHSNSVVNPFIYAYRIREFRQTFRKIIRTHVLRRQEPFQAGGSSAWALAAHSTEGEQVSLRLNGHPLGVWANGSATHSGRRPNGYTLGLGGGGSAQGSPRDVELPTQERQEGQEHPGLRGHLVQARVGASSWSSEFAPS

rats = settings: NECA vs R-PIA; cited from earlier work
A1 surface receptors = settings: both sites, in words; cited from earlier work
A2 surface receptors = settings: cited from earlier work; for agonism at the A2 site: in words
[3] = system: coronary vascular smooth muscle; settings: cited from earlier work
[4] = in vivo; cited from earlier work
[5] = system: noradrenaline-contracted guinea pig aorta; settings: by interactions with A2 receptors; cited from earlier work
animals = settings: cited from earlier work
[6] = because of antagonism of the effects of extracellular adenosine; cited from earlier work

Cn1c(N)c2ncn([C@@H]3O[C@H](CO)[C@@H](O)[C@H]3O)c2nc1=O [1-methylisoguanosine]
Ki (benzodiazepine receptors; benzodiazepine receptors, read-out: Ki vs ^3 H-diazepam binding): ~17000 nM
potency at benzodiazepine receptors relative to inosine and hypoxanthine (benzodiazepine receptors; comparison in words): several hundred fold more potent than inosine and hypoxanthine
degradation by adenosine deaminase (adenosine deaminase): resistant to degradation by adenosine deaminase
muscle relaxation and hypothermia (mice): potent muscle relaxation and hypothermine
cerebellar levels of cyclic GMP (cerebellar cyclic GMP): decreases cerebellar levels of cyclic GMP
interaction with extracellular adenosine receptors, A1 site (A1 site): can interact with extracellular adenosine receptors
interaction with extracellular adenosine receptors, A2 site (A2 site): can interact with extracellular adenosine receptors
polysynaptic responses in the mouse spinal cord (mouse spinal cord): blocked polysynaptic responses
substrate for, or inhibitor of, the adenosine uptake system [1]: poor substrate for, or inhibitor of, the adenosine uptake system
effect on blood pressure and heart rate [2]: reduced blood pressure and heart rate

CCCCSc1cc(Nc2ccccc2)nc(SC(C)C(N)=O)n1 (centres unmarked) [Compound 1, (2-n-butylthio)-4-(N-phenyl)-6-propionamidyl thiopyrimidine]
affinity for the A1 receptor (A1 receptor; in words): moderate affinity

CCC(Sc1nc(SC(CC)C(N)=O)c2cnn(-c3ccccc3)c2n1)C(N)=O (stereo not drawn) [Compound 4, 4,6-bis-α-carbamoylpropylthio-1-phenylpyrazolo[3,4-d]pyrimidine]
IC50 (A1 receptor): 108 nM
potency of butanamide side chain versus propionamide moiety in FIG. 3 (A1 receptor; comparison in words): increased potency over the proprionamide moiety

CCC(Sc1nc2c(cnn2-c2ccccc2)c(=S)[nH]1)C(N)=O (stereo not drawn) [Compound 5, 6-α-carbamoylpropylthio-4-mercapto-1-phenylpyrazolo[3,4-d]pyrimidine]
IC50 (A1 receptor): 492 nM

CCNC(=O)C(C)Sc1nc(SC(C)C(=O)NCC)c2cnn(-c3ccccc3)c2n1 (stereo not drawn) [Compound 6, 4,6-Bis-α-N-ethylcarbamoylethylthio-1-phenylpyrazolo[3,4-d]pyrimidine]
IC50 (A2 receptor): 570 nM
IC50 (A1 receptor): 580 nM

CCNC(=O)C(C)Sc1nc(S)c2cnn(-c3ccccc3)c2n1 (stereo not drawn) [Compound 7, 6-α-N-Ethylcarbamoylethylthio-4-mercapto-1-phenylpyrazolo[3,4-d]pyrimidine]
IC50 (A2 receptor): 540 nM
IC50 (A1 receptor): 490 nM

CCNC(=O)C(C)Sc1nc(N)c2cnn(-c3ccccc3)c2n1 (centres unmarked) [Compound 8]
IC50 (A1 receptor): 17 nM

CCNC(=O)[C@H]1O[C@@H](n2cnc3c(N)ncnc32)[C@H](O)[C@@H]1O [NECA, 5'-N-ethyl carboxamidoadenosine]
anticonvulsant activity in reductions of amygdaloid-kindled seizures (rats): slightly more anticonvulsant activity than R-PIA
agonism at the A1 site (A1 surface receptors): non-selective and are good agonists at both sites
agonist potency at A2 surface receptors (A2 surface receptors; adenylate cyclase systems, NECA vs R-PIA): more potent agonist at A2 surface receptors than is R-N^6 -phenylisopropyl adenosine (R-PIA)
agonism at the A2 site (A2 surface receptors): non-selective and are good agonists at both sites

C[C@H](Cc1ccccc1)Nc1ncnc2c1ncn2[C@@H]1O[C@H](CO)[C@@H](O)[C@H]1O [PIA]
agonism at the A2 site (A2 surface receptors): reduced agonistic activity

Nc1ncnc2c1ncn2[C@@H]1O[C@H](CO)[C@@H](O)[C@H]1O [adenosine]
relaxation of coronary vascular smooth muscle [3]: causes relaxation
activity of adenosine in words [4]: profound hypotensive, antispasmodic, sedative and vasodilatory activity
relaxation of noradrenaline-contracted guinea pig aorta [5]: relaxed
effects when given to animals (animals; intraperitoneal, alone): minimal or no effects
effects in the presence of an adenosine uptake inhibitor and/or adenosine deaminase inhibitor (animals; with adenosine uptake inhibitor and/or adenosine deaminase inhibitor): can cause muscle relaxation and hypothermia
agonism at the A1 site (A1 surface receptors): non-selective and are good agonists at both sites
agonism at the A2 site (A2 surface receptors): non-selective and are good agonists at both sites

Cn1c(=O)c2c(ncn2C)n(C)c1=O [caffeine]
central stimulant action [6]: central stimulant action

CN1C(=O)CN=C(c2ccccc2)c2cc(Cl)ccc21 [diazepam]
Kd (benzodiazepine receptors; radioligand, read-out: Kd of ^3 H-diazepam binding): 11 nM
cerebellar levels of cyclic GMP (cerebellar cyclic GMP): decreases cerebellar levels of cyclic GMP

Cn1c(=O)c2[nH]cnc2n(C)c1=O [theophylline]
central stimulant action [6]: central stimulant action
